# Test system: Male Wistar rats
# Assay: Inhibition of hind leg scratching behaviour induced in rats by a pruritogenic agent (5-methoxytryptamine hydrochloride)
# Assay type: in vivo, rat
# Conditions: test compound by subcutaneous injection in aqueous micelle formulation; pruritogen 5-methoxytryptamine hydrochloride 4 mg/3 mL/kg s.c.; hindleg scratching score totalled after 25 minutes vs control group
# Experimental: The compounds of the invention are evaluated for their activity as antipruritic agents by measuring their ability to inhibit the hind leg scratching behaviour induced in rats by the administration of a known pruritogenic agent. These studies are based on the procedure described by Berendsen and Broekkamp in the European Journal of Pharmacology, 1991, 194, 201. The test is performed as follows:
# Male Wistar rats (approximately 150 g body weight) are challenged with a pruritogen by subcutaneous injection of 5-methoxytryptamine hydrochloride (4 mg/3 mL/kg) dissolved in physiological saline into the scruff of the neck. At this dose a constant and quantifiable hindleg scratching response lasting up to 90 minutes is obtained.
# The test compound is administered to the test animals by subcutaneous injection in an aqueous micelle formulation. The test compound is prepared in the following manner. The compound is dissolved in a vehicle (composition v/v %: glycerol formal, 24; tween 80, 17; benzyl alcohol, 1.5 and purified water to 100) then seven parts purified water is added to three parts of the above vehicle to give the aqueous micelle formulation. […]
# After the pruritogen challenge has been administered, hindleg scratching is scored for each animal by recording the presence or absence of scratching during each 30 second interval as 1 or 0 scored respectively. […]
structure (smiles),measurement,value
"CCCCCCN1CC[C@@](C)(c2ccc(NC(C)=O)c(O)c2)[C@H](C)C1 (racemic) [Example 8, (±)-N-Hexyl-trans-3,4-dimethyl-4-(4-acetylamino-3-hydroxyphenyl)piperidine]",anti-pruritic activity,display anti-pruritic activity

# — patent US6479516B1, “4-arylpiperidine derivatives for the treatment of pruritus” (Pfizer Inc, priority 1999, dated 2002)
